Experimental data from patent US11129839B2, “Minocycline compounds for biodefense” (priority 2015, dated 2021).
≈ marks a conversion by molar mass, not a printed value. Like-named read-outs stand apart in the source and are kept apart here.

Assays:
Y. pestis [1] = settings: cited from earlier work
B. pseudomallei [2] = settings: cited from earlier work
B. anthracis [3] = settings: cited from earlier work
B. mallei [4] = settings: cited from earlier work
[5] = system: Enterococcus faecium (VSE); settings: cited from earlier work
Y. pestis (C092) = system: Y. pestis (C092); design: species or system BALB/c mice; settings: mouse, in vivo; for PD50: ip
Klebsiella pneumonia = settings: cited from earlier work
E. faecalis = assay: animal or person; assay type: in vivo, Mice; settings: Enterococcus faecalis, in Mus musculus, read-out: PD50/ED50
Clostridium difficile = settings: cited from earlier work
Y. pestis [6] = assay: microbe, parasite or virus in culture; assay type: cell-based
B. anthracis AMES strain = system: B. anthracis AMES strain; design: species or system BALB/c mice; settings: mouse, in vivo; for PD50: ip
Acinetobacter baumannii = settings: cited from earlier work
[7] = system: Streptococcus pneumoniae (PRSP); settings: cited from earlier work
Streptococcus pyogenes = settings: cited from earlier work
Haemophilus influenza = settings: cited from earlier work
Shigella spp. = settings: cited from earlier work
Streptococcus agalactiae = settings: cited from earlier work
Clostridium perfringens = settings: cited from earlier work
Proteus mirabilis = settings: cited from earlier work
Enterobacter cloacae = settings: cited from earlier work
[8] = system: Staphylococcus aureus (MSSA); settings: cited from earlier work
[9] = system: bacteria isolated from clinical specimens; assay type: cell-based
Pseudomonas aeruginosa = settings: cited from earlier work
E. coli = assay: animal or person; assay type: in vivo, Mice; settings: Escherichia coli, in Mus musculus, read-out: PD50/ED50
H. influenza = assay: animal or person; assay type: in vivo, Mice; settings: Mus musculus, read-out: PD50/ED50
F. tularensis = assay: microbe, parasite or virus in culture; assay type: cell-based
[10] = system: Enterococcus faecium (VRE); settings: cited from earlier work
Escherichia coli = settings: cited from earlier work
[11] = system: Coagulase-negative staphylococci; settings: cited from earlier work
Bacteroides fragilis = settings: cited from earlier work
Legionella pneumophila = assay: microbe, parasite or virus in culture; assay type: cell-based
[12] = system: Enterococcus faecalis (VSE); settings: cited from earlier work
B. anthracis [13] = assay: microbe, parasite or virus in culture; assay type: cell-based
[14] = system: Enterococcus facecalis (VRE); settings: cited from earlier work
Enterobacter aerogenes = settings: cited from earlier work
Burkholderia cepacia = settings: cited from earlier work
Streptococcus pneumonia = settings: cited from earlier work
Salmonella spp. = settings: cited from earlier work
B. mallei [15] = assay: microbe, parasite or virus in culture; assay type: cell-based
[16] = system: Staphylococcus aureus (MRSA); settings: cited from earlier work
B. pseudomallei [17] = assay: microbe, parasite or virus in culture; assay type: cell-based; settings: Burkholderia pseudomallei
B. mallei (China 7) = system: B. mallei (China 7); design: species or system BALB/c mice; settings: mouse, in vivo
Chlamydia pneumonia = assay: microbe, parasite or virus in culture; assay type: cell-based
Moraxella catarrhalis = settings: cited from earlier work

O=C(O)c1cn(C2CC2)c2cc(N3CCNCC3)c(F)cc2c1=O [Ciprofloxacin]
MIC90 (Y. pestis [1]): 0.03125 µg/mL (≈ 0.0943 µM) | MIC range (Y. pestis [1]): 0.0039 to 0.0625 µg/mL | MIC50 (B. pseudomallei [2]): 2 µg/mL (≈ 6.04 µM) | MIC90 (B. pseudomallei [2]): 4 µg/mL (≈ 12.1 µM) | MIC range (B. pseudomallei [2]): 0.5 to 32 µg/mL | MIC50 (B. anthracis [3]): 0.0625 µg/mL (≈ 0.189 µM) | MIC90 (B. anthracis [3]): 0.125 µg/mL (≈ 0.377 µM) | MIC range (B. anthracis [3]): 0.03125 to .25 µg/mL | MIC50 (B. mallei [4]): 0.5 µg/mL (≈ 1.51 µM) | MIC90 (B. mallei [4]): 1 µg/mL (≈ 3.02 µM) | MIC range (B. mallei [4]): 0.0625 to 1 µg/mL

CN(C)c1cc(CNCC(C)(C)C)c(O)c2c1C[C@H]1C[C@H]3[C@H](N(C)C)C(O)=C(C(N)=O)C(=O)[C@@]3(O)C(O)=C1C2=O [Compound A, 9-[(2,2-dimethyl-propylamino)-methyl]minocycline]
MIC50 [5]: 0.12/0.12 μg/mL | MIC90 [5]: 0.12/16^ μg/mL | percent survival (comparison in words, FIG. 1) (Y. pestis (C092); 40 mg/kg): more effective as doxycycline at 40 mg/kg and is at least as effective or ciprofloxacin at 15 mg/kg | PD50 (Y. pestis (C092)): 23.5 (range of 20.1 to 27.0 mg/kg) | MIC50 (Klebsiella pneumonia): 2/2 μg/mL | MIC90 (Klebsiella pneumonia): 8/>32 μg/mL | ED50 (E. faecalis): 4.5 mg/kg | MIC50 (Clostridium difficile): 0.12/0.03 μg/mL | MIC90 (Clostridium difficile): 0.12/1 μg/mL | MIC range (Y. pestis [6]): 0.125 to 2 µg/mL | in vitro activity (in words) (Y. pestis [6]): significant activity | MIC (Y. pestis [6]; Yersinia pestis): 1 µg/mL (≈ 1.8 µM) | MIC50 (Y. pestis [6]; Yersinia pestis): 1 µg/mL (≈ 1.8 µM) | MIC90 (Y. pestis [6]; Yersinia pestis): 1 µg/mL (≈ 1.8 µM) | percent survival (comparison in words, FIG. 2) (B. anthracis AMES strain): as effective as doxycycline or ciprofloxacin | PD50 (B. anthracis AMES strain): 0.8 (range of 0.6 to 1.1 mg/kg) | MIC50 (Acinetobacter baumannii): 0.25/0.25 μg/mL | MIC90 (Acinetobacter baumannii): 4/2 μg/mL | MIC50 [7]: 0.12/8 μg/mL | MIC90 [7]: 0.12/8 μg/mL | MIC50 (Streptococcus pyogenes): 0.12/25^ μg/mL | MIC90 (Streptococcus pyogenes): 0.12/0.25 μg/mL | MIC50 (Haemophilus influenza): 0.5/0.5 μg/mL | MIC90 (Haemophilus influenza): 1/1 μg/mL | MIC50 (Shigella spp.): 1/1 μg/mL | MIC90 (Shigella spp.): 2/32 μg/mL | MIC50 (Streptococcus agalactiae): 0.25/8 μg/mL | MIC90 (Streptococcus agalactiae): 0.25/16^ μg/mL | MIC50 (Clostridium perfringens): 1/2 μg/mL | MIC90 (Clostridium perfringens): 4/8 μg/mL | MIC50 (Proteus mirabilis): 16/16 μg/mL | MIC90 (Proteus mirabilis): 32/>32 μg/mL | MIC50 (Enterobacter cloacae): 2/4 μg/mL | MIC90 (Enterobacter cloacae): 16/16 μg/mL | MIC50 [8]: 0.25/0.12 μg/mL | MIC90 [8]: 0.25/0.25 μg/mL | effect of serum or lung surfactant on in vitro activity [9]: not affected by serum or lung surfactant | MIC50 (Pseudomonas aeruginosa): 32/32 μg/mL | MIC90 (Pseudomonas aeruginosa): 64/32 μg/mL | ED50 (E. coli): 4.3 mg/kg | ED50 (H. influenza): 4.7 mg/kg | MIC range (F. tularensis): 0.5 to 2 µg/mL | in vitro activity (in words) (F. tularensis): significant activity | MIC50 (F. tularensis; Francisella tularensis): 1 µg/mL (≈ 1.8 µM) | MIC90 (F. tularensis; Francisella tularensis): 2 µg/mL (≈ 3.59 µM) | MIC50 [10]: 0.12/8 μg/mL | MIC90 [10]: 0.12/8 μg/mL | MIC50 (Escherichia coli): 2/8 μg/mL | MIC90 (Escherichia coli): 4/>32 μg/mL | MIC50 [11]: 0.25/0.25 μg/mL | MIC90 [11]: 1/2 μg/mL | MIC50 (Bacteroides fragilis): 1/8 μg/mL | MIC90 (Bacteroides fragilis): 4/16 μg/mL | MIC50 (Legionella pneumophila): 0.25 µg/mL (≈ 0.449 µM) | MIC90 (Legionella pneumophila): 0.25 µg/mL (≈ 0.449 µM) | MIC50 [12]: 0.25/8 μg/mL | MIC90 [12]: 0.5/8^ μg/mL | MIC range (B. anthracis [13]): <0.03125 to 0.0625 µg/mL | in vitro activity (in words) (B. anthracis [13]): highly active | MIC (B. anthracis [13]; Bacillus anthracis): < 0.03 µg/mL | MIC50 (B. anthracis [13]; Bacillus anthracis): 0.0312 µg/mL (≈ 0.0561 µM) | MIC90 (B. anthracis [13]; Bacillus anthracis): 0.0625 µg/mL (≈ 0.112 µM) | MIC50 [14]: 0.12/0.25 μg/mL | MIC90 [14]: 0.25/8 μg/mL | MIC50 (Enterobacter aerogenes): 2/2 μg/mL | MIC90 (Enterobacter aerogenes): 4/4 μg/mL | MIC50 (Burkholderia cepacia): 2/4 μg/mL | MIC90 (Burkholderia cepacia): 64/>32 μg/mL | MIC50 (Streptococcus pneumonia): 0.12/0.25 μg/mL | MIC90 (Streptococcus pneumonia): 0.12/8 μg/mL | MIC50 (Salmonella spp.): 2/4 μg/mL | MIC90 (Salmonella spp.): 8/32 μg/mL | MIC range (B. mallei [15]): <0.03125 to 0.5 µg/mL | in vitro activity (in words) (B. mallei [15]): highly active | MIC (B. mallei [15]; Burkholderia mallei): 0.25 µg/mL (≈ 0.449 µM) | MIC50 (B. mallei [15]; Burkholderia mallei): 0.125 µg/mL (≈ 0.225 µM) | MIC90 (B. mallei [15]; Burkholderia mallei): 0.25 µg/mL (≈ 0.449 µM) | MIC50 [16]: 0.25/0.12 μg/mL | MIC90 [16]: 0.25/2 μg/mL | MIC50 (B. pseudomallei [17]): 64 µg/mL (≈ 115 µM) | MIC90 (B. pseudomallei [17]): > 64 µg/mL | percent survival (in words, FIG. 3) (B. mallei (China 7)): as effective as doxycycline or azithromycin | MIC50 (Chlamydia pneumonia): 0.25 µg/mL (≈ 0.449 µM) | MIC90 (Chlamydia pneumonia): 0.25 µg/mL (≈ 0.449 µM) | MIC50 (Moraxella catarrhalis): 0.25/0.25 μg/mL | MIC90 (Moraxella catarrhalis): 0.25/0.25 μg/mL

C[C@H]1c2cccc(O)c2C(=O)C2=C(O)[C@]3(O)C(=O)C(C(N)=O)=C(O)[C@@H](N(C)C)[C@@H]3[C@@H](O)[C@@H]21 [Doxycycline, reference compound]
PD50 (Y. pestis (C092)): 29.7 (range of 20.7 to 38.8) mg/kg | MIC (Y. pestis [6]; Yersinia pestis): 0.5 µg/mL (≈ 1.13 µM) | PD50 (B. anthracis AMES strain): 2.0 (range of 1.4 to 2.6) mg/kg | MIC50 (Legionella pneumophila): 1 µg/mL (≈ 2.25 µM) | MIC90 (Legionella pneumophila): 1 µg/mL (≈ 2.25 µM) | MIC (B. anthracis [13]; Bacillus anthracis): 0.03 µg/mL (≈ 0.0675 µM) | MIC (B. mallei [15]; Burkholderia mallei): 0.06 µg/mL (≈ 0.135 µM)

CC[C@H]1OC(=O)[C@H](C)[C@@H](O[C@H]2C[C@@](C)(OC)[C@@H](O)[C@H](C)O2)[C@H](C)[C@@H](O[C@@H]2O[C@H](C)C[C@H](N(C)C)[C@H]2O)[C@](C)(O)C[C@@H](C)CN(C)[C@H](C)[C@@H](O)[C@]1(C)O [azithromycin, reference compound]
MIC (B. mallei [15]; Burkholderia mallei): 0.5 µg/mL (≈ 0.668 µM)
